What is called inhibition is the change of the read-out against control, counted positive when it falls. Usually IC50 stands for the concentration needed to halve the response being measured. Lower therefore signals inhibition by little substance.

Like-named read-outs stand apart in the source and are kept apart here. Bounds are passed on as bounds.

One experiment concerns the target BRAF V600E (Homo sapiens (Human), UniProt P15056, V600E). Nature of the experiment: Inhibitory activity against kinase BRAF V600E, Z'-LYTE method (Invitrogen). The class given is biochemical. The conditions noted are these: for inhibition at 1 µM: read-out: Inhibition (% inhibition at 1 μM) against BRAF V600E. In short, it runs like this: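 FRET-based Z′-LYTE peptide-phosphorylation assay in 50 mM HEPES pH 7.5, 0.01% BRIJ-35, 10 mM MgCl2, 1 mM EGTA; kinase reaction 60 min at room temperature, then 60 min development before fluorescence read. IC50 from concentration vs % inhibition; single-point % inhibition tested at 1 μM.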

A further experiment deals with BRAF (Homo sapiens (Human), UniProt P15056). Nature of the experiment: Inhibitory activity against kinase BRAF, Z'-LYTE method (Invitrogen). In kind it is biochemical. Conditions: 1 μM compound. As to the method:
Inhibitory activities Inhibitory activities of compounds against BRAF, and BRAF V600E were measured by Invitrogen using Z′-LYTE® Method as briefly described in the following. 4× Test compounds are dissolved in 1% DMSO. […] ATP solutions are diluted to a 4×ATP working concentration in Kinase Buffer (50 mM HEPES pH 7.5, 0.01% BRIJ-35, 10 mM MgCl2, 1 mM EGTA). Reaction started by 30-second shaking of mixture consisting of 2.5 μL 4× test compound, […] and 2.5 μL 4×ATP Solution on Bar-coded Corning, low volume NBS, black 384-well plate (Corning Cat. #3676). Then the mixture was incubated for 60-minute at room temperature for the kinase reaction, followed by addition of 5 μL of a 1:1024 dilution of development reagent A and 30-second plate shake. The mixture was then incubated for another 60-minute at room temperature for development reaction. Fluorescence was read by plate reader. IC50 was calculated by plotting the concentration of compound vs the percentage of inhibition in treated wells using GraphPad Prism 5.
Table 2 and 3 show % inhibition at 1 μM of several compounds of the invention against BRAF and BRAF V600E, respectively, using Z′-LYTE® method.

The subject of another experiment is A549 cells. Nature of the experiment: Inhibition of cancer cell growth, MTT or MTS assay, A549. In kind it is cell-based. The conditions noted are these: Homo sapiens, 72 h incubation. An outline of the steps: (§1)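 Cells in RPMI 1640 with 10% FBS were seeded at ~2000 (A375) or 4000 (A549, Colo205) per well, grown 24 h, then exposed to compound 72 h at 1% final DMSO. Read-out by MTT (570 nm) or MTS (490 nm). IC50 from concentration vs percent inhibition, triplicates.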
On the technique in general: Tetrazolium assays rely on reduction of a dye to a coloured formazan, in cell work by metabolically active cells.

Another experiment relates to A375 cells. Nature of the experiment: Inhibition of cancer cell growth, MTT or MTS assay, A375. In kind it is cell-based. Conditions: Homo sapiens, A-375; 72 h incubation. In short, it runs like this: as §1
The next experiment concerns the target KDR (VEGFR2) (Homo sapiens (Human), UniProt P35968). Nature of the experiment: Inhibitory activity against kinase KDR, Z'-LYTE method (Invitrogen). In kind it is biochemical. The conditions noted are these: for inhibition at 1 µM: read-out: Inhibition (% inhibition at 1 μM) against KDR. In short, it runs like this:
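Human KDR (VEGFR2) kinase inhibition was measured with Invitrogen's Z′-LYTE® method. A 2× mixture of KDR and Tyr 01 peptide is made in 50 mM HEPES pH 7.5, 0.01% BRIJ-35, 10 mM MgCl2, 1 mM EGTA. Each 10 μL reaction holds 0.5-11.7 ng enzyme and 2 μM Tyr 01. It incubates for 1 hour, then 5 μL of Development Reagent B diluted 1:256 is added.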

KDR (VEGFR2), sequence (P35968 20-1356): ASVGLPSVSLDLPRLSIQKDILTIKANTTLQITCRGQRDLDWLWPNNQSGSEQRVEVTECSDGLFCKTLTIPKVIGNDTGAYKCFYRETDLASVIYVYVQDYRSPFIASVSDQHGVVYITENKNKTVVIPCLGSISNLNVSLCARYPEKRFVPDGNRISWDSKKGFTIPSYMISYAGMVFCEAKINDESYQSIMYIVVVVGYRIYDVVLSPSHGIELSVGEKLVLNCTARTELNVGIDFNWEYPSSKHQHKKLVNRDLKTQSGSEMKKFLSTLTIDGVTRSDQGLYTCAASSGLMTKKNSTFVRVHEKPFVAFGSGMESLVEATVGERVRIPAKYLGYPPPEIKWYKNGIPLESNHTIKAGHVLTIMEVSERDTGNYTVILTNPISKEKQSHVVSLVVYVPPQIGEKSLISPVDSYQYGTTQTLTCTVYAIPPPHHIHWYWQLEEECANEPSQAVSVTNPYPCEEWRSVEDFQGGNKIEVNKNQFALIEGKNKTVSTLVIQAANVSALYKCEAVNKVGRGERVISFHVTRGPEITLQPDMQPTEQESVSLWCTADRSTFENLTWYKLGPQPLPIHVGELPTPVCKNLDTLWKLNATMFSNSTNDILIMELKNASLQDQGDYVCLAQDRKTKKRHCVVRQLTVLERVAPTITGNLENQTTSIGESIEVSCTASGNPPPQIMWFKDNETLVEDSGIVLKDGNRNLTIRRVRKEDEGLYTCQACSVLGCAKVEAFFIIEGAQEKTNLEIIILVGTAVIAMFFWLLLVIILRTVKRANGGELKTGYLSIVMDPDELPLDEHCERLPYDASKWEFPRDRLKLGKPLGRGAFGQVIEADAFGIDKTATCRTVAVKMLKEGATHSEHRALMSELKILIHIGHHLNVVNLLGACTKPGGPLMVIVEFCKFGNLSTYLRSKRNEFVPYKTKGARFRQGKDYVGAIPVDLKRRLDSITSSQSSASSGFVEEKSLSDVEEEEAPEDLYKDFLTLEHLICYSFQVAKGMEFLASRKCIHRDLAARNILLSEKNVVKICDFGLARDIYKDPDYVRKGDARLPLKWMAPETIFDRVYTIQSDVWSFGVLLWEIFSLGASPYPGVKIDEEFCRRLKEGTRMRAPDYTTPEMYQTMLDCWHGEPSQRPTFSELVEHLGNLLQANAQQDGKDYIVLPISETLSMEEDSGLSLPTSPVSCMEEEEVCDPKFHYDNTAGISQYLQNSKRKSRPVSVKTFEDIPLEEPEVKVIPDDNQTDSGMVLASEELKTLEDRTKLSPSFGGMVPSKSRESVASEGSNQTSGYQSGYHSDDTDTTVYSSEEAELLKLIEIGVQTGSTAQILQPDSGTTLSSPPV
BRAF, sequence (P15056 whole entry): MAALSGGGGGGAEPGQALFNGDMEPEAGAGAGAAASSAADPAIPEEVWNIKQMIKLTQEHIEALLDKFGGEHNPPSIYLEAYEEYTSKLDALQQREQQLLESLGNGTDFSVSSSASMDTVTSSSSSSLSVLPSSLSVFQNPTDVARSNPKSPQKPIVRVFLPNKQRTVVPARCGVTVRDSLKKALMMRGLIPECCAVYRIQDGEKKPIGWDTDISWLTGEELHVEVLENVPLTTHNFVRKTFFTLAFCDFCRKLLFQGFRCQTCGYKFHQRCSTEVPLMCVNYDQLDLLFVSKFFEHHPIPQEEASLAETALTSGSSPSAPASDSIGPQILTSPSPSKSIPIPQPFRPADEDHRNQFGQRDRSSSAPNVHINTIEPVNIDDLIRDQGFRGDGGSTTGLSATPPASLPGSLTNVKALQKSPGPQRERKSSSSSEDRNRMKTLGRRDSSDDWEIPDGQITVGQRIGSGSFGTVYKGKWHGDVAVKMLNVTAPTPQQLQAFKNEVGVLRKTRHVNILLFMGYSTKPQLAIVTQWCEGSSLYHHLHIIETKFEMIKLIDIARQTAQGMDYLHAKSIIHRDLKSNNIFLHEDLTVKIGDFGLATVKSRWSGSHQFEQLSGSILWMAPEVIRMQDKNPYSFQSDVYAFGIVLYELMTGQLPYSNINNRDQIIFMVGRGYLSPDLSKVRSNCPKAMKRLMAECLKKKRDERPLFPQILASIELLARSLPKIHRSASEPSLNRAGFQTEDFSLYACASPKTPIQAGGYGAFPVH
BRAF V600E, sequence (P15056 whole entry V600E): as the sequence (P15056 whole entry) above, with V600E counted along it

As for `O=C(Nc1ccc(Oc2ccc3nccnc3c2)cc1)Nc1cccc(F)c1` [Compound C074, 1-(3-fluorophenyl)-3-(4-(quinoxalin-6-yloxy)phenyl)urea], the inhibition at 1 µM is 70 to 89% at BRAF V600E (1 μM compound) and less than 70% at BRAF. In addition, the IC50 in the experiment with A549 cells was 2 to 5 µM; with A375 cells, 1 to 5 µM.

Take `O=C(Nc1cccc(Cl)c1)Nc1ccc(Oc2ccc3nccnc3c2)cc1F` [Compound C093, 1-(3-chlorophenyl)-3-(2-fluoro-4-(quinoxalin-6-yloxy)phenyl)urea]: the inhibition at 1 µM at BRAF V600E (1 μM compound) was more than 89%; on KDR (VEGFR2) (1 μM compound), 70 to 89%; against BRAF, 70 to 89%. In addition, the IC50 in the experiment with A549 cells and with A375 cells was more than 5 µM throughout.

Turning to `O=C(Nc1cccc(Oc2ccc3nccnc3c2)c1)Nc1cccc(C(F)(F)F)c1` [Compound C003, 1-(3-(quinoxalin-6-yloxy)phenyl)-3-(3-(trifluoromethyl)phenyl)urea], the IC50 at BRAF V600E was more than 0.1 µM; against KDR (VEGFR2) it was less than 0.1 µM; in the experiment on A549 cells it was 2 to 5 µM; in the experiment with A375 cells, more than 5 µM. In addition, the inhibition at 1 µM at BRAF V600E (1 μM compound) was more than 89%; on KDR (VEGFR2) (1 μM compound), more than 89%; on BRAF, less than 70%.

In the case of `N#Cc1ccc(NC(=O)Nc2cccc(Oc3ccc4nccnc4c3)c2)cc1C(F)(F)F` [Compound C073, 1-(4-cyano-3-(trifluoromethyl)phenyl)-3-(3-(quinoxalin-6-yloxy)phenyl)urea], the inhibition at 1 µM is more than 89% on BRAF V600E, 70 to 89% on KDR (VEGFR2) and less than 70% on BRAF. In addition, the results for the IC50 in the experiment with A549 cells and with A375 cells were 2 to 5 µM and more than 5 µM, respectively.

Take `O=C(Nc1cc(F)cc(Oc2ccc3ncc(N4CCOCC4)nc3c2)c1)c1cccc(C(F)(F)F)c1` [Compound C028, N-(3-fluoro-5-((3-morpholinoquinoxalin-6-yl)oxy)phenyl)-3-(trifluoromethyl)benzamide]: the inhibition at 1 µM is more than 89% at BRAF V600E (1 μM compound), 70 to 89% on KDR (VEGFR2) (1 μM compound) and less than 70% on BRAF. For the same compound, the IC50 in the experiment on A549 cells is more than 5 µM; with A375 cells, 1 to 5 µM.

As for `O=C(Nc1cccc(Cl)c1)Nc1cccc(Oc2ccc3ncc(N4CCOCC4)nc3c2)c1` [Compound C047, 1-(3-chlorophenyl)-3-(3-((3-morpholinoquinoxalin-6-yl)oxy)phenyl)urea], the figures for the inhibition at 1 µM on BRAF V600E (1 μM compound), on KDR (VEGFR2) (1 μM compound) and on BRAF were more than 89%, 70 to 89% and 70 to 89%, respectively. For the same compound, the values for the IC50 with A549 cells and in the experiment with A375 cells were more than 5 µM and 1 to 5 µM, respectively.

For `O=C(Nc1ccc(Oc2ccc3ncc(N4CCNCC4)nc3c2)cc1)Nc1ccc(C(F)(F)F)cc1` [Compound C088, 1-(4-((3-(piperazin-1-yl)quinoxalin-6-yl)oxy)phenyl)-3-(4-(trifluoromethyl)phenyl)urea], the inhibition at 1 µM was more than 89% at BRAF V600E (1 μM compound), more than 89% on KDR (VEGFR2) (1 μM compound) and less than 70% against BRAF. Moreover, the IC50 was 2 to 5 µM in the experiment with A549 cells and 1 to 5 µM in the experiment with A375 cells.

With `O=C(Nc1ccc(F)c(F)c1)Nc1ccc(F)c(Oc2ccc3ncc(N4CCOCC4)nc3c2)c1` [Compound C052, 1-(3,4-difluorophenyl)-3-(4-fluoro-3-((3-morpholinoquinoxalin-6-yl)oxy)phenyl)urea], the results for the inhibition at 1 µM on BRAF V600E (1 μM compound), on KDR (VEGFR2) (1 μM compound) and on BRAF were more than 89%, 70 to 89% and 70 to 89%, respectively. Moreover, the IC50 in the experiment on A375 cells was in the range of 1 to 5 µM.

With `O=C(Nc1ccc(Oc2ccc3ncc(N4CCNCC4)nc3c2)cc1)Nc1cccc(Cl)c1` [Compound C091, 1-(3-chlorophenyl)-3-(4-((3-(piperazin-1-yl)quinoxalin-6-yl)oxy)phenyl)urea], the inhibition at 1 µM on BRAF V600E (1 μM compound), at KDR (VEGFR2) (1 μM compound) and on BRAF was more than 89% each time. In addition, the IC50 fell in the range of 2 to 5 µM in the experiment with A549 cells and 1 to 5 µM in the experiment on A375 cells.

As for `O=C(Nc1cc(F)cc(F)c1)Nc1ccc(F)c(Oc2ccc3ncc(N4CCOCC4)nc3c2)c1` [Compound C054, 1-(3,5-difluorophenyl)-3-(4-fluoro-3-((3-morpholinoquinoxalin-6-yl)oxy)phenyl)urea], the inhibition at 1 µM on BRAF V600E (1 μM compound) is more than 89%; on KDR (VEGFR2) (1 μM compound) it was less than 70%; at BRAF, less than 70%. For the same compound, the figures for the IC50 in the experiment with A549 cells and with A375 cells were more than 5 µM and 1 to 5 µM, respectively.

As to `N#Cc1ccc(NC(=O)Nc2cccc(Oc3ccc4nccnc4c3)c2)cc1` [Compound C070, 1-(4-cyanophenyl)-3-(3-(quinoxalin-6-yloxy)phenyl)urea], the inhibition at 1 µM at BRAF V600E (1 μM compound), at KDR (VEGFR2) (1 μM compound) and against BRAF was more than 89% each time. For the same compound, the 50% inhibitory concentration (IC50) with A549 cells and in the experiment with A375 cells was more than 5 µM in each case.

Regarding `O=C(Nc1ccc(Cl)cc1)Nc1cccc(Oc2ccc3ncc(N4CCOCC4)nc3c2)c1` [Compound C048, 1-(4-chlorophenyl)-3-(3-((3-morpholinoquinoxalin-6-yl)oxy)phenyl)urea], the inhibition at 1 µM at BRAF V600E (1 μM compound) was more than 89%; at KDR (VEGFR2) (1 μM compound), 70 to 89%; against BRAF, 70 to 89%. In addition, the IC50 was 2 to 5 µM with A549 cells and 1 to 5 µM in the experiment with A375 cells.

As for `O=C(Nc1cccc(Oc2ccc3nccnc3c2)c1)c1ccc(Cl)c(C(F)(F)F)c1` [Compound C006, 4-chloro-N-(3-(quinoxalin-6-yloxy)phenyl)-3-(trifluoromethyl)benzamide], the inhibition at 1 µM at BRAF V600E (1 μM compound) is more than 89%; on KDR (VEGFR2) (1 μM compound) it was 70 to 89%; against BRAF, less than 70%. The IC50 with A549 cells and in the experiment on A375 cells was more than 5 µM in each case.

`O=C(Nc1ccc(Oc2ccc3nccnc3c2)cc1)Nc1cccc(C(F)(F)F)c1` [Compound C075, 1-(4-(quinoxalin-6-yloxy)phenyl)-3-(3-(trifluoromethyl)phenyl)urea]: the IC50 on BRAF V600E is more than 0.1 µM; against KDR (VEGFR2), more than 0.1 µM; in the experiment on A549 cells, 2 to 5 µM; with A375 cells, 1 to 5 µM. For the same compound, the inhibition at 1 µM on BRAF V600E (1 μM compound) was more than 89%; on KDR (VEGFR2) (1 μM compound) it was 70 to 89%; against BRAF it was less than 70%.

Regarding `O=C(Nc1cccc(F)c1)Nc1ccc(F)c(Oc2ccc3ncc(N4CCOCC4)nc3c2)c1` [Compound C034, 1-(4-fluoro-3-((3-morpholinoquinoxalin-6-yl)oxy)phenyl)-3-(3-fluorophenyl)urea], the inhibition at 1 µM on BRAF V600E (1 μM compound) was more than 89%; on KDR (VEGFR2) (1 μM compound), less than 70%; against BRAF, less than 70%. The IC50 is more than 5 µM with A549 cells and less than 1 µM in the experiment on A375 cells.

In the case of `O=C(Nc1ccc(F)cc1)Nc1ccc(Oc2ccc3ncc(N4CCNCC4)nc3c2)cc1` [Compound C090, 1-(4-fluorophenyl)-3-(4-((3-(piperazin-1-yl)quinoxalin-6-yl)oxy)phenyl)urea], the inhibition at 1 µM on BRAF V600E (1 μM compound) is more than 89%; on KDR (VEGFR2) (1 μM compound), more than 89%; against BRAF, 70 to 89%. The IC50 in the experiment with A549 cells was less than 2 µM; in the experiment on A375 cells, 1 to 5 µM.

For `O=C(Nc1cc(F)cc(Oc2ccc3nccnc3c2)c1)Nc1cccc(C(F)(F)F)c1` [Compound C021, 1-(3-fluoro-5-(quinoxalin-6-yloxy)phenyl)-3-(3-(trifluoromethyl)phenyl)urea], the inhibition at 1 µM at BRAF V600E (1 μM compound) was more than 89%; at KDR (VEGFR2) (1 μM compound), 70 to 89%; at BRAF, less than 70%. Besides, the IC50 in the experiment on A549 cells was less than 2 µM; with A375 cells it was 1 to 5 µM.

With `O=C(Nc1ccc(F)c(Oc2ccc3ncc(N4CCNCC4)nc3c2)c1)Nc1ccc(Cl)c(C(F)(F)F)c1` [Compound C066, 1-(4-chloro-3-(trifluoromethyl)phenyl)-3-(4-fluoro-3-((3-(piperazin-1-yl)quinoxalin-6-yl)oxy)phenyl)urea], the inhibition at 1 µM at BRAF V600E (1 μM compound) was more than 89%; on KDR (VEGFR2) (1 μM compound), more than 89%; against BRAF it was less than 70%. For the same compound, the figures for the IC50 in the experiment with A549 cells and in the experiment on A375 cells were less than 2 µM and 1 to 5 µM, respectively.

The record behind these values is patent US10590106B2, “Certain chemical entities, compositions, and methods” (NeuPharma, Inc., priority 2012, dated 2020).
